Source: patent EP0970046B1, “N-HYDROXY-2-(ALKYL, ARYL, OR HETEROARYL SULFANYL, SULFINYL OR SULFONYL)-3-SUBSTITUTED ALKYL, ARYL OR HETEROARYLAMIDES AS MATRIX METALLOPROTEINASE INHIBITORS” (Wyeth Holdings Corporation, priority 1997, dated 1998)
Where two headings read alike, the source gives them in different places.

Legend:
Format in all cases: biochemical
[1] = target: MMP 13 (Homo sapiens, UniProt P45452); experiment: MMP 13 inhibition (IC50 / manual assay; method not described); details: for IC50: read-out: MMP 13 IC 50
[2] = target: T1, MMP 9 (Homo sapiens, UniProt P14780); experiment: In Vitro Gelatinase Assay; details: human neutrophil gelatinase B; for IC50: read-out: MMP 9 IC 50; for inhibition at 1 µM: read-out: MMP 9 % inhibition at 1 micromolar, 1 micromolar
T1 construct: from tissue; host or cells: human neutrophils
T1 sequence (P14780 94-707): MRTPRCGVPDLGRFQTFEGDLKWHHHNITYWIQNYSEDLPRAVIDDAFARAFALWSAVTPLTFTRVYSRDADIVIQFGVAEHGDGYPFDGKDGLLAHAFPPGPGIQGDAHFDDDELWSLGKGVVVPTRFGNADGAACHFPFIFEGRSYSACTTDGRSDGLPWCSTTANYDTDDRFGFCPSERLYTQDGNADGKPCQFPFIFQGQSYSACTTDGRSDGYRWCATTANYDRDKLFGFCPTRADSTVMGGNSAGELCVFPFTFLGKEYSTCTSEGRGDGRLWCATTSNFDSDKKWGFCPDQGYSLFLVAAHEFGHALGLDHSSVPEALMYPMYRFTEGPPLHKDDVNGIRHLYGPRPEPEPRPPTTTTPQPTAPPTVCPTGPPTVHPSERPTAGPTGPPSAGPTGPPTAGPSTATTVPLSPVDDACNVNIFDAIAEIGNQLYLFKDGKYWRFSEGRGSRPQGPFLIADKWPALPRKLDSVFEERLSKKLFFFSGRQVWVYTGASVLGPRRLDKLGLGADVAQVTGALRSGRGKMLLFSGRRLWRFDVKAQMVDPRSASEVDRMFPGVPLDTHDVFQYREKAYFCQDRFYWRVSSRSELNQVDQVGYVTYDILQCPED
Protocol: The assay is based on the cleavage of the thiopeptide substrate ((Ac-Pro-Leu-Gly(2 mercapto-4 methyl-pentanoyl)-Leu-Gly-OEt), Bachem Bioscience) by the enzyme, gelatinase, releasing the substrate product which reacts colorimetrically with DTNB ((5,5'-dithio-bis(2-nitro-benzoic acid)). The enzyme activity is measured by the rate of the color increase. The thiopeptide substrate is made up fresh as a 20 mM stock in 100% DMSO and the DTNB is dissolved in 100% DMSO as a 100 mM stock and stored in dark at room temperature. Both the substrate and DTNB are diluted together to 1 mM with substrate buffer (50 mM HEPES pH 7.5, 5 mM CaCl2) before use. […] The increase in OD405 is plotted and the slope of the line is calculated which represents the reaction rate. The linearity of the reaction rate is confirmed (r^2 >0.85). The mean (x ± sem) of the control rate is calculated and compared for statistical significance (p <0.05) with drug-treated rates using Dunnett's multiple comparison test.

[3] = target: T2, TACE (Homo sapiens, UniProt P78536); experiment: Procedure for Measuring TACE Inhibition; details: for inhibition at 1 µM: read-out: TACE % inhibition at 1 micromolar
T2 construct: purchased Immunex
T2 sequence (P78536 215-824): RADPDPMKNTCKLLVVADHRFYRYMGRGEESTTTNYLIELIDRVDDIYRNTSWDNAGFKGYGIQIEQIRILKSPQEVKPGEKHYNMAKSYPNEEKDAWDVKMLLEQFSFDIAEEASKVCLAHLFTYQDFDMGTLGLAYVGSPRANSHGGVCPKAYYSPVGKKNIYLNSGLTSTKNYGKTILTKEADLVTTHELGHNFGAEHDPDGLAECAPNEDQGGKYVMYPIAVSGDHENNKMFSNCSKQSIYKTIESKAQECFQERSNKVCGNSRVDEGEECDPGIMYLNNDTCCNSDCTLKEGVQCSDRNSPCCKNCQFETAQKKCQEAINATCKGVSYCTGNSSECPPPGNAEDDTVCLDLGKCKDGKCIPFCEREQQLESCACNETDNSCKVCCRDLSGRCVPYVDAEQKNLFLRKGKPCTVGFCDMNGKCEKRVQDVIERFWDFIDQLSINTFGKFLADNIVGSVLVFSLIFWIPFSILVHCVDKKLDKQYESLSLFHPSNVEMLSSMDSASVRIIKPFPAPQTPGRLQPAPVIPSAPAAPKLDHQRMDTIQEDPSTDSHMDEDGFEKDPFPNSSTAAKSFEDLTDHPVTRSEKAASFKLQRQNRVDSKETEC
Method in brief: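 Single-concentration screen: test compound at 1 µM final, 10-min room-temperature preincubation with 1 µg/mL protease in Tris pH 7.4 buffer containing glycerol. Initial rate from linear fluorescence increase (340/420 nm) over 10 min after adding 100 µM peptidyl substrate; significance versus control rate by Dunnett's test.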

[4] = target: T3, MMP 1 (Homo sapiens, UniProt P03956); experiment: In Vitro Collagenase Assay; details: human recombinant fibroblast collagenase; for IC50: read-out: MMP 1 IC 50
T3 construct: human recombinant fibroblast collagenase (truncated, mw= 18,828, WAR, Radnor)
T3 sequence (P03956 100-269 limits assumed): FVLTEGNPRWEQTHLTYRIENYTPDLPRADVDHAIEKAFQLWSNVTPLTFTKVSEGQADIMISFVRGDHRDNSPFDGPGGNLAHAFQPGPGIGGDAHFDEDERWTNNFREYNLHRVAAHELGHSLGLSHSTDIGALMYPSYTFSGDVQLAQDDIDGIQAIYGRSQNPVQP
Protocol: The assay is based on the cleavage of a peptide substrate ((Dnp-Pro-Cha-Gly-Cys(Me)-His-Ala-Lys(NMa)-NH2), Peptide International, Inc.) by collagenase releasing the fluorescent NMa group which is quantitated on the fluorometer. Dnp quenches the NMa fluorescence in the intact substrate. […] Substrate is dissolved in methanol and stored frozen in 1 mM aliquots. […] For the assay, substrate is dissolved in HCBC buffer to a final concentration of 10 µM and collagenase to a final concentration of 5 nM. Compounds are dissolved in methanol, DMSO, or HCBC. The methanol and DMSO are diluted in HCBC to < 1.0%. Compounds are added to the 96 well plate containing enzyme and the reaction is started by the addition of substrate.
The slope of the line is calculated and represents the reaction rate.
The linearity of the reaction rate is confirmed (r^2 >0.85). The mean (x ± sem) of the control rate is calculated and compared for statistical significance (p <0.05) with drug-treated rates using Dunnett's multiple comparison test.

Row | Structure (SMILES) | IC50 [1] [nM] | IC50 [2] [nM] | inhibition at 1 µM [3] [%] | IC50 ([3]; read-out: TACE IC 50) [nM] | also measured
1 | CCCCOc1ccc(S(=O)(=O)C2(C(=O)NO)CCN(Cc3ccccc3)CC2)cc1 [Example 98, 1-Benzyl-4-(4-butoxy-benzenesulfonyl)-piperidine-4-carboxylic acid hydroxyamide] | 1.2 | – | – | – | –
2 | CCOc1ccc(S(=O)(=O)C(C)(Cc2ccc(OCCN(CC)CC)cc2)C(=O)NO)cc1 (stereo not drawn) [Example 25, N-Hydroxy-2-(4-ethoxy-benzenesulfonyl)-2-methyl-3-[4-(2-N,N-diethylamino-ethoxy)-phenyl]-propionamide] | 8 | 26.7 | – | – | –
3 | CC#CCC(CC#CC)(C(=O)NO)S(=O)(=O)c1ccc(F)cc1 [Example 78, 2-(4-Fluoro-benzenesulfonyl)-2-but-2-ynyl-hex-4-ynoic acid hydroxyamide] | 34 | 560 | 24.6 | – | –
4 | COc1ccc(SC(C(=O)NO)c2ccccc2)cc1 (stereo not drawn) [Example 2, N-Hydroxy-2-(4-methoxy-phenylsulfanyl)-2-phenyl-acetamide] | – | – | – | 403 | inhibition at 1 µM [2]: 10.5%; inhibition at 1 µM ([1]; read-out: MMP 13 % inhibition at 1 micromolar): 0%
5 | CCCCOc1ccc(S(=O)(=O)C(C)(Cc2ccc(OCCN3CCCCC3)cc2)C(=O)NO)cc1 (stereo not drawn) [Example 28, N-Hydroxy-2-(4-n-butoxy-benzenesulfonyl)-2-methyl-3-[4-(2-piperidin-1-yl-ethoxy)-phenyl]-propionamide] | 2 | – | 30.6 | – | –
6 | COc1ccc([S+]([O-])C(C)(Cc2ccccc2)C(=O)NO)cc1 (stereo not drawn) [Example 5, N-Hydroxy-2-(4-methoxy-benzenesulfinyl)-2-methyl-3-phenyl-propionamide] | 4.7 | 7.7 | 25 | – | –
7 | COc1ccc(S(=O)(=O)C2(C(=O)NO)CCN(CCc3ccccc3)CC2)cc1 [Example 103, 4-(4-methoxy-benzenesulfonyl)-1-(2-phenyl-ethyl)-piperidine-4-carboxylic acid hydroxyamide] | 8.8 | 45.1 | – | – | IC50 [3]: 470 nM
8 | CC(Cc1ccc(OCCN2CCCCC2)cc1)(C(=O)NO)S(=O)(=O)c1cccs1 (stereo not drawn) [Example 45] | – | – | 20.4 | – | inhibition at 1 µM ([4]; read-out: MMP 1 % inhibition at 1 micromolar, 1 micromolar): 49%; inhibition at 1 µM [2]: 48.6%
9 | COc1ccc(S(=O)(=O)C(C)(Cc2ccc(OCCN3CCCCCC3)cc2)C(=O)NO)cc1 (stereo not drawn) [Example 18, 2-[4-(2-Azepan-1-yl-ethoxy)-benzyl]-2-(4-methoxy-benzenesulfonyl)-propionic acid hydroxyamide] | – | 18.9 | 29.2 | – | IC50 [4]: 540 nM
10 | CCCCOc1ccc(S(=O)(=O)C2(C(=O)NO)CCN(Cc3ccc(OC)cc3)CC2)cc1 [Example 104, 4-(4-n-Butoxy-benzenesulfonyl)-1-(4-methoxy-benzyl)-piperidine-4-carboxylic acid hydroxyamide] | 1.4 | – | – | 208 | –
11 | COc1ccc(S(=O)(=O)C(CCCCOc2ccccc2)(Cc2cccnc2)C(=O)NO)cc1 (stereo not drawn) [Example 68, 2-(4-Methoxy-benzenesulfonyl)-6-phenoxy-2-pyridin-3-ylmethyl-hexanoic acid hydroxyamide] | 27 | 29 | – | 522 | –
12 | CC(C)=CCC(CC=C(C)C)(C(=O)NO)S(=O)(=O)c1ccc(C)cc1 [Example 42, 5-Methyl-2-(3-methyl-but-2-enyl)-2-(toluene-4-sulfonyl)-hex-4-enoic acid hydroxyamide] | 6.2 | 50.9 | – | – | –
13 | COc1ccc(S(=O)(=O)C(CC=C(C)C)(CC=C(C)C)C(=O)NO)cc1 [Example 79, 2-(4-Methoxy-benzenesulfonyl)-5-methyl-2-(3-methyl-but-2-enyl)-hex-4-enoic acid hydroxyamide] | – | 0.54 | – | 805 | IC50 [4]: 25 nM
14 | CCCCOc1ccc(S(=O)(=O)C2(C(=O)NO)CCN(CCCOc3ccccc3)CC2)cc1 [Example 106, 4-(4-n-Butoxy-benzenesulfonyl)-1-(3-phenoxy-propyl)-piperidine-4-carboxylic acid hydroxyamide] | – | 5.1 | – | 631 | IC50 [4]: 3790 nM
